Test system: Wine Proteins
Assay: Effect of different cofactors on the activity of bromelain on wine, SDS PAGE
Assay type: biochemical
Details: CaCl2 as cofactor of bromelain; data not presented
Procedure: Cysteine is known to improve the activity of bromelain. […] To test the relevance of using methionine and glutathione as cofactors of a cysteine protease, the inventors compared the effect of these cofactors to the effect of cysteine on the activity of bromelain in wine. To this end, the following protocol has been implemented: • Wine: Gewurztraminer type with a pH of 3.8; • Add 10 mM of cysteine, glutathione or methionine, for 3 wine samples; • Weigh four times 8 mg of the pre-purified extract obtained from the sequence of steps 1, 2 and 4 of the above method; • Dissolve each pre-purified extract in wine, wine in the presence of cysteine, wine in the presence of glutathione and wine in the presence of methionine; • Leave in contact for 16 hours, with the plate stirring at 80 rpm and at room temperature; • Take 60 μl of the supernatant; • Add 20 μl of Laemmli 4×; • Place 50 μl on SDS PAGE gel.

SMILES: [Ca+2].[Cl-].[Cl-] [CaCl2, calcium chloride]
- effect on the hydrolysis of wine proteins: positive effect

Reference: patent US20200277556A1, “USE OF AN ADDITIVE TO IMPROVE THE QUALITY OF BEVERAGES BASED ON PLANT MUSTS” (OENOTROPIC INNOVATION, priority 2017, published 2020)
